{"source": "paper PMC11599599", "about": "“Synthesis, characterization, molecular docking, pharmacokinetics, and molecular dynamics of new bis-thiazoles based on bis-thiosemicarbazone as anti-coxsackievirus” (Scientific Reports, 2024)", "key": {"Cox B virus": {"test_system": "Cox B virus", "experiment": "Plaque reduction assay against Cox B virus", "assay_type": "cell-based", "details": "for inhibition at 20 µg/mL / inhibition at 40 µg/mL: Vero", "method": "(§1) Compounds: 10 mg were dissolved in 1 mL (10% DMSO and 90% deionized water), sterilized by 1% antibiotic–antimycotic mixture and stored in −20.\n(§2) Cells: Vero cell line was used. The cells were propagated in DMEM medium (Lonza, USA) supplemented with 10% fetal bovine serum (Gibco, USA), 1% antibiotic–antimycotic mixture (Lonza, USA).\nVirus: Cox B virus was propagated and titrated to give final count of 0.9 × 10^5 viral particle/mL.\nThis test was done according to Tebas et al.[47], In a 12-well plate Vero cells (10^5 cells/mL) were cultivated for 1 day at 37 °C. The Cox B virus was mixed with the safe concentration of the compound and incubated for 1 h at 37 °C before being added to the cells. Following the removal of the growth media, the cells were injected with virus-extract combinations ([…]) and then rinsed with PBS (Phosphate Buffer Saline). Following a one-hour contact period for virus adsorption, the cell monolayer was supplemented with one milliliter of Dulbecco’s Modified Eagles Media (DMEM) containing 2% agarose. The plates were then allowed to solidify and incubated at 37 °C until the development of viral plaques. Formalin (10%) was added for 2 h then plates were stained with crystal violet. Control wells were included where untreated virus was incubated with Vero cells and finally plaques were counted and percentage reduction in plaques formation in comparison to control wells was recorded as following:\n% inhibition = (viral count(untreated) - viral count(treated))/viral count(untreated)X100."}, "Vero cells": {"test_system": "Vero cells", "experiment": "Cytotoxicity assay on Vero cells (microscopic morphology)", "assay_type": "cell-based", "design": "key to Cytotoxicity on Vero cells (cell sheet affected): -: Safe concentration; + 1, +2, + 3, +4: about 25, 50, 75, 100% of cell sheet was affected respectively; + 1, +2, + 3, +4: about 25, 50, 75, 100% of cell sheet was affected respectively; + 1, +2, + 3, +4: about 25, 50, 75, 100% of cell sheet was affected respectively; + 1, +2, + 3, +4: about 25, 50, 75, 100% of cell sheet was affected respectively; M: masked (color of compounds made cells unseen)", "details": "for Cytotoxicity on Vero cells (cell sheet affected): 24 h, morphological changes; for Safety effect on Vero cells (in words): Table 1, 24 h", "method": "as §1, §2\nCytotoxic effect of compounds was measured by inoculation different doses of compounds on tested cells then examining them microscopically after 24 h to determine any morphological changes that appeared on cells as a result of being subjected to the compounds[46]. Vero cells were seeded onto 96-well plates, which were then incubated for the whole night. After a 24-hour incubation period at 37 °C in a humidified incubator with 5% CO2, compounds were injected at concentrations of 10, 20, 30, 40, 50, 60, 70, 80, 90, and 100 µg /100 µl. Any morphological changes were monitored under a microscope."}}, "data": [{"smiles": "COc1ccc(OC)c(C=C2C(=NNC(N)=S)c3ccccc3C2=NNC(N)=S)c1", "note": "[compound 3, 2,2’-((1E,3Z)−2-((E)−2,5-dimethoxybenzylidene)−1H-indene-1,3(2H)-diylidene)bis-(hydrazine-1-carbothioamide)]", "values": [{"measurement": "Viral count (treated)", "setting": "Cox B virus; 20 ug/mL", "value": "1.24 × 10^7"}, {"measurement": "Viral count (treated)", "setting": "Cox B virus; 40 ug/mL", "value": "0.72 × 10^7"}, {"measurement": "inhibition at 20 µg/mL", "setting": "Cox B virus", "value": 22, "unit": "%"}, {"measurement": "inhibition at 40 µg/mL", "setting": "Cox B virus", "value": 55, "unit": "%"}, {"measurement": "Cytotoxicity on Vero cells (cell sheet affected)", "setting": "Vero cells; 10 µg/100µl", "value": "-"}, {"measurement": "Cytotoxicity on Vero cells (cell sheet affected)", "setting": "Vero cells; 20 µg/100µl", "value": "-"}, {"measurement": "Cytotoxicity on Vero cells (cell sheet affected)", "setting": "Vero cells; 30 µg/100µl", "value": "-"}, {"measurement": "Cytotoxicity on Vero cells (cell sheet affected)", "setting": "Vero cells; 40 µg/100µl", "value": "-"}, {"measurement": "Cytotoxicity on Vero cells (cell sheet affected)", "setting": "Vero cells; 50 µg/100µl", "value": "-"}, {"measurement": "Cytotoxicity on Vero cells (cell sheet affected)", "setting": "Vero cells; 60 µg/100µl", "value": "-"}, {"measurement": "Cytotoxicity on Vero cells (cell sheet affected)", "setting": "Vero cells; 70 µg/100µl", "value": "-"}, {"measurement": "Cytotoxicity on Vero cells (cell sheet affected)", "setting": "Vero cells; 80 µg/100µl", "value": "-"}, {"measurement": "Cytotoxicity on Vero cells (cell sheet affected)", "setting": "Vero cells; 90 µg/100µl", "value": "-"}, {"measurement": "Cytotoxicity on Vero cells (cell sheet affected)", "setting": "Vero cells; 100 µg/100µl", "value": "-"}, {"measurement": "Safety effect on Vero cells (in words)", "setting": "Vero cells", "value": "higher safety"}, {"measurement": "melting point", "value": "231 to 233", "unit": "°C"}]}, {"smiles": "COc1ccc(OC)c(C=C2/C(=N/Nc3nc(C)c(/N=N/c4ccc([N+](=O)[O-])cc4)s3)c3ccccc3/C2=N\\Nc2nc(C)c(/N=N/c3ccc([N+](=O)[O-])cc3)s2)c1", "note": "[7d, 2,2’-(((1E,3E)−2-(2,5-dimethoxybenzylidene)−1H-indene-1,3(2H)-diylidene)bis(hydrazin-1-yl-2-ylidene))bis(4-methyl-5-((E)-(4-nitrophenyl)diazenyl)thiazole)]", "values": [{"measurement": "Viral count (treated)", "setting": "Cox B virus; 20 ug/mL", "value": "1.6 × 10^7"}, {"measurement": "Viral count (treated)", "setting": "Cox B virus; 40 ug/mL", "value": "0.54 × 10^7"}, {"measurement": "inhibition at 20 µg/mL", "setting": "Cox B virus", "value": 0, "unit": "%"}, {"measurement": "inhibition at 40 µg/mL", "setting": "Cox B virus", "value": 66, "unit": "%"}, {"measurement": "Cytotoxicity on Vero cells (cell sheet affected)", "setting": "Vero cells; 10 µg/100µl", "value": "-"}, {"measurement": "Cytotoxicity on Vero cells (cell sheet affected)", "setting": "Vero cells; 20 µg/100µl", "value": "-"}, {"measurement": "Cytotoxicity on Vero cells (cell sheet affected)", "setting": "Vero cells; 30 µg/100µl", "value": "-"}, {"measurement": "Cytotoxicity on Vero cells (cell sheet affected)", "setting": "Vero cells; 40 µg/100µl", "value": "-"}, {"measurement": "Cytotoxicity on Vero cells (cell sheet affected)", "setting": "Vero cells; 50 µg/100µl", "value": "-"}, {"measurement": "Cytotoxicity on Vero cells (cell sheet affected)", "setting": "Vero cells; 60 µg/100µl", "value": "-"}, {"measurement": "Cytotoxicity on Vero cells (cell sheet affected)", "setting": "Vero cells; 70 µg/100µl", "value": "-"}, {"measurement": "Cytotoxicity on Vero cells (cell sheet affected)", "setting": "Vero cells; 80 µg/100µl", "value": "-"}, {"measurement": "Cytotoxicity on Vero cells (cell sheet affected)", "setting": "Vero cells; 90 µg/100µl", "value": "-"}, {"measurement": "Cytotoxicity on Vero cells (cell sheet affected)", "setting": "Vero cells; 100 µg/100µl", "value": "-"}, {"measurement": "Safety effect on Vero cells (in words)", "setting": "Vero cells", "value": "higher safety"}, {"measurement": "melting point", "value": "181 to 183", "unit": "°C"}]}, {"smiles": "COc1ccc(OC)c(C=C2/C(=N/Nc3nc(-c4ccccc4)cs3)c3ccccc3/C2=N\\Nc2nc(-c3ccccc3)cs2)c1", "note": "[compound 13, 2,2’-(((1E,3E)−2-(2,5-dimethoxybenzylidene)−1H-indene-1,3(2H)-diylidene)bis(hydrazin-1-yl-2-ylidene))bis(4-phenylthiazole)]", "values": [{"measurement": "Viral count (treated)", "setting": "Cox B virus; 20 ug/mL", "value": "1.6 × 10^7"}, {"measurement": "Viral count (treated)", "setting": "Cox B virus; 40 ug/mL", "value": "1.6 × 10^7"}, {"measurement": "inhibition at 20 µg/mL", "setting": "Cox B virus", "value": 0, "unit": "%"}, {"measurement": "inhibition at 40 µg/mL", "setting": "Cox B virus", "value": 0, "unit": "%"}, {"measurement": "Cytotoxicity on Vero cells (cell sheet affected)", "setting": "Vero cells; 10 µg/100µl", "value": "-"}, {"measurement": "Cytotoxicity on Vero cells (cell sheet affected)", "setting": "Vero cells; 20 µg/100µl", "value": "-"}, {"measurement": "Cytotoxicity on Vero cells (cell sheet affected)", "setting": "Vero cells; 30 µg/100µl", "value": "-"}, {"measurement": "Cytotoxicity on Vero cells (cell sheet affected)", "setting": "Vero cells; 40 µg/100µl", "value": "-"}, {"measurement": "Cytotoxicity on Vero cells (cell sheet affected)", "setting": "Vero cells; 50 µg/100µl", "value": "-"}, {"measurement": "Cytotoxicity on Vero cells (cell sheet affected)", "setting": "Vero cells; 60 µg/100µl", "value": "-"}, {"measurement": "Cytotoxicity on Vero cells (cell sheet affected)", "setting": "Vero cells; 70 µg/100µl", "value": "-"}, {"measurement": "Cytotoxicity on Vero cells (cell sheet affected)", "setting": "Vero cells; 80 µg/100µl", "value": "-"}, {"measurement": "Cytotoxicity on Vero cells (cell sheet affected)", "setting": "Vero cells; 90 µg/100µl", "value": "-"}, {"measurement": "Cytotoxicity on Vero cells (cell sheet affected)", "setting": "Vero cells; 100 µg/100µl", "value": "-"}, {"measurement": "Safety effect on Vero cells (in words)", "setting": "Vero cells", "value": "higher safety"}, {"measurement": "melting point", "value": "193 to 195", "unit": "°C"}]}, {"smiles": "COc1ccc(OC)c(C=C2/C(=N/NC3=NC(=O)CS3)c3ccccc3/C2=N\\NC2=NC(=O)CS2)c1", "note": "[9a, 2,2’-(((1E,3E)−2-(2,5-dimethoxybenzylidene)−1H-indene-1,3(2H)-diylidene)bis(hydrazin-1-yl-2-ylidene))bis(thiazol-4(5H)-one)]", "values": [{"measurement": "Viral count (treated)", "setting": "Cox B virus; 20 ug/mL", "value": "1.6 × 10^7"}, {"measurement": "Viral count (treated)", "setting": "Cox B virus; 40 ug/mL", "value": "1.6 × 10^7"}, {"measurement": "inhibition at 20 µg/mL", "setting": "Cox B virus", "value": 0, "unit": "%"}, {"measurement": "inhibition at 40 µg/mL", "setting": "Cox B virus", "value": 0, "unit": "%"}, {"measurement": "Cytotoxicity on Vero cells (cell sheet affected)", "setting": "Vero cells; 10 µg/100µl", "value": "-"}, {"measurement": "Cytotoxicity on Vero cells (cell sheet affected)", "setting": "Vero cells; 20 µg/100µl", "value": "-"}, {"measurement": "Cytotoxicity on Vero cells (cell sheet affected)", "setting": "Vero cells; 30 µg/100µl", "value": "-"}, {"measurement": "Cytotoxicity on Vero cells (cell sheet affected)", "setting": "Vero cells; 40 µg/100µl", "value": "-"}, {"measurement": "Cytotoxicity on Vero cells (cell sheet affected)", "setting": "Vero cells; 50 µg/100µl", "value": "-"}, {"measurement": "Cytotoxicity on Vero cells (cell sheet affected)", "setting": "Vero cells; 60 µg/100µl", "value": "-"}, {"measurement": "Safety effect on Vero cells (in words)", "setting": "Vero cells", "value": "highly toxic at low concentration"}, {"measurement": "melting point", "value": "130 to 132", "unit": "°C"}]}]}
